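Following 48 hours of exposure in 96-well plates, responses at five concentrations were used to interpolate endpoints linearly. TGI marks complete inhibition of growth.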
Legend:
Assay in all cases: growth of human tumour cells (NCI), 48 h
NCI-H460 lung = tested on: NCI-H460 lung
TK-10 renal = tested on: TK-10 renal
M19-MEL melanoma = tested on: M19-MEL melanoma
UACC-62 melanoma = tested on: UACC-62 melanoma
NCI-H522 lung = tested on: NCI-H522 lung
HCC-2998 colon = tested on: HCC-2998 colon
NCI-H23 lung = tested on: NCI-H23 lung
MOLT-4 leukemia = tested on: MOLT-4 leukemia
M14 melanoma = tested on: M14 melanoma
OVCAR-4 ovarian = tested on: OVCAR-4 ovarian

Row | SMILES | TGI (NCI-H460 lung) [µM] | TGI (TK-10 renal) [µM] | TGI (M19-MEL melanoma) [µM] | TGI (UACC-62 melanoma) [µM] | TGI (NCI-H522 lung) [µM] | TGI (HCC-2998 colon) [µM] | TGI (NCI-H23 lung) [µM] | TGI (MOLT-4 leukemia) [µM] | TGI (M14 melanoma) [µM] | TGI (OVCAR-4 ovarian) [µM]
1 | O=c1oc2ccccc2[n+]([O-])c1-c1ccccc1 | > 100 | > 100 | > 100 | > 100 | > 100 | > 100 | > 100 | > 100 | > 100 | > 100
2 | O=C(/C=C/c1ccccc1)CC(=O)CCC(=O)Nc1ccc(Cl)cc1 | > 100 | > 100 | > 100 | > 100 | > 100 | > 100 | > 100 | > 100 | > 100 | > 100
3 | CC(=O)OCC1OC(N2C(=O)C(=O)c3ccccc32)C(OC(C)=O)C(OC(C)=O)C1OC(C)=O (stereo not given) | > 100 | > 100 | > 100 | > 100 | > 100 | > 100 | > 100 | > 100 | > 100 | > 100
4 | O=c1c2cc(Br)ccc2nc(CCl)n1-c1ccc(O)c([N+](=O)[O-])c1 | > 100 | 32.8 | 36.2 | 72.5 | 35.7 | 34.1 | 35.8 | 53.5 | 50.2 | 33.4
5 | Cc1cc(N(CCC#N)CCC#N)ccc1/C=C(\NC(=O)/C=C/c1ccccc1)C(=O)NN | > 100 | > 76.8 | > 100 | > 100 | > 100 | > 100 | > 100 | > 100 | > 100 | > 100
6 | CSC(=S)N/N=C/c1nccc2ccccc12 | 6.12 | 62.9 | > 33.6 | 6.08 | 1.63 | 11.3 | 5.03 | 3.65 | 4.87 | > 100
7 | COc1ccc2[nH]c3c(c2c1)[C@H](C)C[C@@H]1C(=O)N(c2ccccc2)C(=O)[C@H]31 | > 100 | > 100 | > 100 | > 100 | 42.1 | > 100 | 66.8 | 56.6 | > 100 | 45.2
8 | C=CC(OCC)(OCC)OCC | > 100 | > 100 | > 100 | > 100 | > 100 | > 100 | > 100 | > 100 | > 100 | > 100

— PubChem BioAssay (NCI)
